# Reference: patent US20250339409A1, “USES OF PAN BET INHIBITORS” (VYNE THERAPEUTICS INC., priority 2021, published 2025)
# Tested on: imiquimod-induced psoriasis
# Assay: Imiquimod-induced psoriasis (Th17 inflammation) model in mice, topical treatment once daily D7-D13: PASI, modified PASI, body weight, use of enrichment, TEWL
# Format: in vivo
# Set-up: key to Mean score use enrichment: 0 = no use of dental rolls to 4 = use of all 4; key to PASI Mean score values: sum of erythema, induration, peeling scores, each 0-3 (0 = none)
# Conditions: imiquimod-induced mice
# Description: Thirty-six (36) female Balb/c mice are weighed and randomly divided into 9 groups (n=4) according to body weight on D1. For mice of native group 1 and tolerance groups 8 and 9, no induction of psoriasis is performed between D1 and D13. Psoriasis is induced in groups 2 to 7 by once daily topical application for 13 days (from day 1 to day 13) of 65 mg of Aldara™ cream (5.0% imiquimod) onto the shaved and epilated back of mice. Before the first treatment, a second randomization of mice of the 6 imiquimod-induced psoriasis groups is performed according to the severity of psoriasis (PASI), and also the body weight of mice. Starting on day 7 and until day 13, 100 mg of test formulations […] and 65 mg of vehicle (groups 1 and […]) are topically administered once daily for 7 consecutive days onto the shaved back skin of mice. Several measurements are taken during treatment period from day 7 to day 14: psoriasis index (PASI), body weight, use of enrichment and mortality. At the end of treatment period, TEWL is assessed, and blood and skin samples are collected. Histological analysis of skin samples is used for microscopic scoring of psoriasis and the determination of the thickness of parakeratosis and epidermis and blood analysis is used for assessing the level of proinflammatory biomarkers (cytokines assays). The effect of treatment of psoriasis induced mice with BETi formulations at the four dose levels are compared with Dermoval® cream containing 0.05% clobetasol propionate (reference) and vehicle (positive control) and also with healthy mice treated with vehicle (negative control).
# PASI scoring takes into account the following 3 parameters: the presence of erythema on the skin, induration of the skin (thickening) and peeling of the skin at the area of the induction of psoriasis.
# The presence of erythema on the skin at the area of induction of psoriasis with the following scoring grid: • 0=no or no more erythema on the skin, • 1=weak erythema on the skin, • 2=moderate erythema on the skin, • 3=important erythema on the skin.
# The presence of induration of the skin at the area of induction of psoriasis with the following scoring grid: • 0=no or no more induration of the skin, • 1=weak induration of the skin, • 2=moderate induration of the skin, • 3=important induration of the skin.
# The presence of peeling of the skin at the area of induction of psoriasis with the following scoring grid: • 0=no or no more dryness/peeling of the skin, • 1=weak dryness/peeling of the skin, • 2=moderate dryness/peeling of the skin, • 3=important dryness/peeling of the skin.
# The sum of the mean scores of these 3 parameters result in the mean PASI score.
# One of the issues with a steroid is that it causes skin thinning and continues to have an effect on no longer inflamed skin and the model set up and measurements above are not designed to reflect this negative effect. Therefore, a modified PASI (mPASI) is calculated in the same the manner as mean PASI score but excludes the scoring for induration (thickening of the skin).
# Mice are weighed three times during the week of D1 to D7, and then daily during the week of D7 to D13, as well as on the day D14 when they are sacrificed. It should be noted that a characteristic body weight loss of mice is observed after the start of the induction of psoriasis, mainly during the first days following it. The body weight loss can reach between 10 to 15%.
# For the duration of the experiment, dental rolls are used as enrichment and placed in each cage and replaced twice. Between D1 and D7, the number of dental rolls used by animals are determined twice in the morning, and are determined daily during D7 to D14, at the time of PASI or the tolerance assessment. The use of dental rolls is scored from 0=no use of dental rolls to 4=use of the 4 dental rolls. In the case where only half of a dental roll is used, a score of 0.5 is assigned. […]
smiles,measurement,setting,value
Cn1cc(-c2cccc(O)c2Oc2ccccc2)c2cc[nH]c2c1=O [BETi1],Modified PASI Mean score values,"D 2, listed as BETI1 0.1%",0.50
same,PASI Mean score values,"D 2, listed as BETI1 0.1%",0.50
same,Modified PASI Mean score values,"D 2, listed as BETI1 1.0%",1.00
same,PASI Mean score values,"D 2, listed as BETI1 1.0%",1.00
same,Mean score use enrichment,"D 2, listed as BETi 0.001%",0.25
same,Mean score use enrichment,"D 2, listed as BETi 0.01%",0.50
same,Mean score use enrichment,"D 2, listed as BETi 0.1%",0.75
same,Modified PASI Mean score values,"D 2, listed as BETi1 0.001%",1.00
same,PASI Mean score values,"D 2, listed as BETi1 0.001%",1.25
same,Modified PASI Mean score values,"D 2, listed as BETi1 0.01%",0.25
same,PASI Mean score values,"D 2, listed as BETi1 0.01%",0.25
same,Mean score use enrichment,"D 2, listed as BETi 1.0%",0.75
same,Modified PASI Mean score values,"D 3, listed as BETI1 0.1%",1.25
same,PASI Mean score values,"D 3, listed as BETI1 0.1%",1.25
same,Modified PASI Mean score values,"D 3, listed as BETI1 1.0%",1.25
same,PASI Mean score values,"D 3, listed as BETI1 1.0%",1.25
same,Mean score use enrichment,"D 3, listed as BETi 0.001%",0.75
same,Mean score use enrichment,"D 3, listed as BETi 0.01%",0.50
same,Mean score use enrichment,"D 3, listed as BETi 0.1%",1.25
same,Modified PASI Mean score values,"D 3, listed as BETi1 0.001%",1.00
same,PASI Mean score values,"D 3, listed as BETi1 0.001%",1.00
same,Modified PASI Mean score values,"D 3, listed as BETi1 0.01%",1.25
same,PASI Mean score values,"D 3, listed as BETi1 0.01%",1.25
same,Mean score use enrichment,"D 3, listed as BETi 1.0%",1.00
same,Modified PASI Mean score values,D 4,2.75
same,PASI Mean score values,"D 4, listed as BETI1 0.1%",3.00
same,PASI Mean score values,"D 4, listed as BETI1 1.0%",3.25
same,Mean score use enrichment,"D 4, listed as BETi 0.001%",1.00
same,Mean score use enrichment,"D 4, listed as BETi 0.01%",0.75
same,Mean score use enrichment,"D 4, listed as BETi 0.1%",1.25
same,PASI Mean score values,"D 4, listed as BETi1 0.001%",3.25
same,PASI Mean score values,"D 4, listed as BETi1 0.01%",3.25
same,Mean score use enrichment,"D 4, listed as BETi 1.0%",1.00
same,Modified PASI Mean score values,"D 5, listed as BETI1 0.1%",4.50
same,PASI Mean score values,"D 5, listed as BETI1 0.1%",5.75
same,Modified PASI Mean score values,"D 5, listed as BETI1 1.0%",4.00
same,PASI Mean score values,"D 5, listed as BETI1 1.0%",5.50
same,Mean score use enrichment,"D 5, listed as BETi 0.001%",1.25
same,Mean score use enrichment,"D 5, listed as BETi 0.01%",0.75
same,Mean score use enrichment,"D 5, listed as BETi 0.1%",0.50
same,Modified PASI Mean score values,"D 5, listed as BETi1 0.001%",4.00
same,PASI Mean score values,"D 5, listed as BETi1 0.001%",5.00
same,Modified PASI Mean score values,"D 5, listed as BETi1 0.01%",4.00
same,PASI Mean score values,"D 5, listed as BETi1 0.01%",5.25
same,Mean score use enrichment,"D 5, listed as BETi 1.0%",1.50
same,Modified PASI Mean score values,"D 6, listed as BETI1 0.1%",4.50
same,PASI Mean score values,"D 6, listed as BETI1 0.1%",7.00
same,Modified PASI Mean score values,"D 6, listed as BETI1 1.0%",4.75
same,PASI Mean score values,"D 6, listed as BETI1 1.0%",7.25
same,Mean score use enrichment,"D 6, listed as BETi 0.001%",1.25
same,Mean score use enrichment,"D 6, listed as BETi 0.01%",1.25
same,Mean score use enrichment,"D 6, listed as BETi 0.1%",0.75
same,Modified PASI Mean score values,"D 6, listed as BETi1 0.001%",4.75
same,PASI Mean score values,"D 6, listed as BETi1 0.001%",7.25
same,Modified PASI Mean score values,"D 6, listed as BETi1 0.01%",4.75
same,PASI Mean score values,"D 6, listed as BETi1 0.01%",7.00
same,Mean score use enrichment,"D 6, listed as BETi 1.0%",1.50
